Results published in PMC6834593, “Chemical activation of divergent protein tyrosine phosphatase domains with cyanine-based biarsenicals” (Scientific Reports, 2019).

Assays:
Type in all cases: biochemical
[1] = molecular target: T1, actSHP2 (Src-homology-2-domain-containing PTP 2) (Homo sapiens, UniProt Q06124, C333P/V428C/S430C/D431C); assay: pNPP phosphatase assay (activation at […])
T1 construct: gene PTPN11; His6-tagged catalytic domain
T1 sequence (Q06124 247-517 C333P/V428C/S430C/D431C limits assumed): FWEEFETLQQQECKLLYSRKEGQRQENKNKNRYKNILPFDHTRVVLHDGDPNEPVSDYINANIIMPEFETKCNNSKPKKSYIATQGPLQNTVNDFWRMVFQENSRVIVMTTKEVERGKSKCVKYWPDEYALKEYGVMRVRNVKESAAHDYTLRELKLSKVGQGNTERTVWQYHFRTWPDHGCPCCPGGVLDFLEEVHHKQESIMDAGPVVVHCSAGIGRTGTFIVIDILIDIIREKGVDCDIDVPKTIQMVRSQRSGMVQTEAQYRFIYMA

[2] = molecular target: T2, actPTPκ (PTPkappa) (Homo sapiens, UniProt Q15262, H1056C/V1053C/Y1055C); assay: pNPP phosphatase assay (activation, dose dependence); also in-gel fluorescence of labelled protein in lysate
T2 construct: gene PTPRK; His6-tagged catalytic domain, residues 870–1154
T2 sequence (Q15262 869-1153 V1053C/Y1055C/H1056C): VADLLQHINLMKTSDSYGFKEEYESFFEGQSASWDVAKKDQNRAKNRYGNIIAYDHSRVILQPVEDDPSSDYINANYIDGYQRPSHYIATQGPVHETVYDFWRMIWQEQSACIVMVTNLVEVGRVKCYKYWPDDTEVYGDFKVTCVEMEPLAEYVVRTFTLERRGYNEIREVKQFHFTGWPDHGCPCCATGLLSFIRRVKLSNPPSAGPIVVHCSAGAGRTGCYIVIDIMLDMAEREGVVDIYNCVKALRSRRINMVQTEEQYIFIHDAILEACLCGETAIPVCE

[3] = molecular target: T3, actHePTP (hematopoietic PTP) (Homo sapiens, UniProt P35236, E262C/S263C/T260C); assay: as above
T3 construct: gene PTPN7; His6-tagged catalytic domain, residues 65–360
T3 sequence (P35236 65-360 T260C/E262C/S263C): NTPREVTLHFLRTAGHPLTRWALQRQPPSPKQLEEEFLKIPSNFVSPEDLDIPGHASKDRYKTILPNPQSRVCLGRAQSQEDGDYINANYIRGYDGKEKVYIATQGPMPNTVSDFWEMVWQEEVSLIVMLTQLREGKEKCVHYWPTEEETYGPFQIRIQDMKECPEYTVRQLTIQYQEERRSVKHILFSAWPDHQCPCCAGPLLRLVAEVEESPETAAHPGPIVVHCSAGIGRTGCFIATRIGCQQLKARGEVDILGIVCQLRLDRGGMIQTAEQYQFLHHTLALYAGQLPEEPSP

SMILES: CC1(C)C(/C=C/C=C/C=C2/N(CCCCS(=O)(=O)O)c3ccc([As]4SCCS4)cc3C2(C)C)=[N+](CCCCS(=O)(=O)[O-])c2ccc([As]3SCCS3)cc21 [AsCy5]
- pNPP phosphatase assay (activation at 1 μM) [1]: Both cyanine-derived biarsenicals, AsCy3 and AsCy5, were more successful in activating actSHP2 than FlAsH and ReAsH
- AC50 [2]: ~600 nM
- AC50 [3]: ~200 nM
